Results as given in patent US11382872B2, “LSD1 inhibitors as skeletal muscle hypertrophy inducers” (CYTOO, priority 2016, dated 2022).
Structures can show the parent of a compound that is named as a salt. Where two headings read alike, the source gives them in different places.

How the values were obtained:
[1] = test system: Human primary myoblasts; test: Hypertrophy assay (MyoScreen human myotube model): primary screening, retest, dose response; assay type: cell-based
Protocol: Healthy donor primary skeletal cells (Donor 1 and Donor 3) were Clonetics™ Human Skeletal Muscle Myoblasts (HSMM).
(§1) Hypertrophy and Atrophy Rescue assays were performed using an in vitro fully automated human myotube model called MyoScreen™ (Cytoo, France). This model relies on a tight control of the microenvironment that guides the differentiation of human primary myoblasts. Myotubes formed on MyoScreen™ micropatterns present a high level of maturation together with a highly standardized morphology.
(§2) Human primary myoblasts from donors were seeded in MyoScreen™ micropatterned 96-well plates (Cytoo, France), let them adhere for 24 h in growth medium, then run the differentiation in a low horse serum medium for at least 5 days.
(§3) At Day 0, MyoScreen™ plates (Cytoo, France) containing micropatterns were pre-filled with 200 μl/well of growth medium and stored in the incubator at 37° C. Human primary myoblasts were detached from the flasks, count, and seeded into the plates with 15 000 cells per well in 100 μl of growth medium.
(§4) At Day 1, the growth medium was changed for a differentiation medium, 300 μ/well (DMEM with 0.1% horse serum) in which myoblasts started differentiating and forming myotubes.
(§5) At Day 2, the differentiation medium was changed. Then candidate compounds were diluted with differentiation medium and transferred into the plate. The final concentration of DMSO should be not higher than 0.1%. At least 6 wells were treated with the vehicle as a basal control, and 6 wells were treated with IGF-1 at 100 ng/ml as positive hypertrophy control.
(§6) At Day 6, cells were fixed with formalin 5% for 30 min at room temperature, then permeabilized with Triton X-100 at 0.1% in PBS for 15 min, and blocked with PBS+BSA 1% for 20 minutes. Myotubes were incubated with first antibody against Troponin T in blocking buffer for 1 h30, washed three times with PBS, incubated with secondary antibody and Hoescht ( 1/10000) for 1 h30, and washed three times with PBS.
Images were acquired at 10× magnification with an Operetta High Content Imaging System. Image processing and analysis were performed with dedicated algorithms developed on the Acapella High Content Imaging Software (Perkin Elmer) by CYTOO. Eleven fields per well were acquired.
First, segmentation of myotubes and nuclei were done using respectively the Troponin T staining intensity and the Hoechst staining. […] The threshold of segmentation was set-up in order to avoid detecting the background noise and eliminate aberrant small myotube structures.
Then, an image clean-up step was performed on the Troponin T images in order to remove myotubes that touch the border of the image. The final valid myotubes were used to extract myotube morphology parameters including the myotube width and area, and the number of nuclei per myotube.
Nuclei Count, Fusion Index, Mean myotube Area and Number of nuclei per myotube have been validated as relevant and sensitive readouts of myotube differentiation as well as atrophic and hypertrophic induction.
A primary screening was run to identify hypertrophy compounds that increase the myotube differentiation and size. Candidate compounds were tested at 10 μM in monoplicate on Donor 3 cells.
A retest was run, by cherry picking (same compound batch as primary screening): each hit was tested in the same conditions as in the Primary Screening (Donor 3, 10 μM) in six well replicates.
Dose response assays were performed on two healthy donors (Donors 3 and 1): 8 doses of candidate compounds between 33 μM and 0.015 μM, 2 well replicates per dose.

[2] = test system: MyoScreen myotubes; test: Acetylcholine Receptor (AchR) Clustering Assay (MyoScreen); assay type: cell-based, Human; settings: after 7 days of treatment
Protocol: The MyoScreen™ protocol was performed as described in the Hypertrophy and Atrophy rescue assay in example 1 but was stopped at Day 9 instead of Day 6. At the end of the assay, AchR were immunostained using a specific antibody in addition to Troponin T and nuclei. Images were acquired at ×20 with an Operetta High Content Imaging System from Perkin Elmer. Image processing and analyses were performed with a dedicated algorithm developed on the Acapella High Content Imaging Software (Perkin Elmer). Specific readouts were calculated in each well: nuclei count and myotube fusion index, number of AchR, AchR mean area, AchR total area normalized by the myotube total area.
Remarkably, when labeled with a specific anti-AChR antibody, MyoScreen myotubes at 6 days post-differentiation display AChR clusters punctuated along the sarcolemma membrane in the middle of the myotube fiber and in distinct regions at the ends of myotubes. To develop an automated AChR cluster assay, an AChR detection routine was developed that was sensitive and robust enough to analyze aggregate number and size clusters in images using the Operetta/Acapella system (see Materials and Methods).

[3] = test system: Human primary myoblasts; test: Hypertrophy assay (MyoScreen human myotube model): primary screening, retest, dose response; assay type: cell-based; remark: listed apart in the source
[4] = test system: Myotubes from the healthy donor 3; test: Atrophy Rescue assay (MyoScreen) with atrophy inducers; assay type: cell-based, Human; parameters: key: +++: total rescue; ++: partial rescue; +: low rescue; settings: tranylcypromine 1 μM; for atrophy rescue, IL-1: inducer IL-1β 25 ng/mL; for atrophy rescue, TGF-β: inducer TGF-β 0.5 ng/mL; for atrophy rescue, TNF-alpha: inducer TNF-α 2 ng/mL; for atrophy rescue, dexamethasone: inducer dexamethasone 100 μM; for atrophy rescue, Myostatin: inducer myostatin 150 ng/mL
Protocol: as §1, §2, §3, §4, §5
For Atrophy Rescue assay, one hour after candidate compound addition, atrophy inducers were added at the following final concentration: 150 ng/mL of myostatin, 25 ng/mL of IL-1β, 2 ng/mL of TNF-α, 0.5 ng/mL of TGF-β and 100 μM of dexamethasone.
as §6
Atrophy Rescue assays were performed in triplicate in the presence of atrophy inducers, i.e. TNF-α, IL-1β, Myostatin, TGF-β and dexamethasone, and at 1 μM tranylcypromine.
Atrophy rescue assays was performed for tranylcypromine. Myotubes from the healthy donor 3 were atrophied using different inducers: TNF-α, IL-1β, Myostatin, TGF-β and dexamethasone. The ability of tranylcypromine to block the atrophy induced by these different atrophy inducers was determined.

[5] = Homo sapiens, Myoblast, Donor 3, second dose response assay
[6] = Donor 3, second dose response assay, lower concentrations
[7] = Donor 5, Example 2 dose response
[8] = Donor 3, Example 2 dose response
[9] = Donor 7, compounds at 1 μM (IGF-1 positive control)
[10] = Donor 1, first dose response assay (0.015-33 μM)
[11] = Donor 3, first dose response assay (0.015-33 μM)

| Compound | EC50 [1, 5] [nM] | % Activity [3, 6] [%] | % Activity [3, 7] [%] | % Activity [1, 8] [%] | % Activity [3, 9] | atrophy rescue, IL-1 [4] | atrophy rescue, TGF-β [4] | atrophy rescue, TNF-alpha [4] | atrophy rescue, dexamethasone [4] | atrophy rescue, Myostatin [4] | % Activity [1, 10] [%] | % Activity [1, 11] [%] | further results |
| --- | --- | --- | --- | --- | --- | --- | --- | --- | --- | --- | --- | --- | --- |
| c1ccc(C2C[C@H]2NC2CCNCC2)cc1 (stereo partly drawn) [GSK LSD1] | 0.1 | 145 | 146 | – | – | – | – | – | – | – | – | – | increase of AchR cluster total area (normalized by total myotube area) ([2]; Donor 3): 50%; increase of AchR cluster total area (normalized by total myotube area) ([2]; Donor 5): 260%; EC50 ([3]; Homo sapiens, Myoblast, Donor 5, Example 2 dose response): 0.012 nM; activity at 1 µM ([3]; Homo sapiens, Myoblast, Donor 7, compounds at 1 μM (IGF-1 positive control)): 120%; activity at 1 µM ([3]; Homo sapiens, Myoblast, Donor C1, compound at 1 μM (IGF-1 positive control)): 154%; activity at 1 µM ([3]; Homo sapiens, Myoblast, Donor C13, compound at 1 μM (IGF-1 positive control)): 123% |
| Cl.Cl.NNCCc1ccc(NC(=O)CCCc2ccccc2)cc1 [Bizine] | – | – | 119 | 120 | 116% at 1 μM | – | – | – | – | – | – | – | EC50 [1, 8]: < 350 nM; EC50 [3, 7]: 87 nM |
| CN1CCN(C(=O)CN[C@H]2C[C@@H]2c2ccc(OCc3ccccc3)cc2)CC1 [RN 1 dihydrochloride] | 0.1 | 135 | – | – | – | – | – | – | – | – | – | – | – |
| IGF-1: insulin-like growth factor I, positive hypertrophy control at 100 ng/ml | – | 150 | 145 | 190 | 119% | +++ | ++ | +++ | +++ | +++ | 150 | 150 | Primary screening (% Activity) ([1]; Donor 3, compounds 10 μM, monoplicate (IGF-1 control 100 ng/ml), Myotube fusion index (compound)*100/basal control): 210%; Retest (% Activity) ([3]; Donor 3, compounds 10 μM, six well replicates (IGF-1 control 100 ng/ml), Myotube fusion index (compound)*100/basal control): 190%; % Activity ([3]; Donor C1, compound at 1 μM (IGF-1 positive control)): 124%; % Activity ([3]; Donor C13, compound at 1 μM (IGF-1 positive control)): 141% |
| N[C@H]1C[C@@H]1c1ccccc1 (relative stereo) [Tranylcypromine, trans-2-phenylcyclopropan-1-amine] | 50 | 135 | – | – | – | +++ | + | + | ++ | +++ | 138 | 127 | EC50 ([3]; Homo sapiens, Myoblast, Donor 1, first dose response assay): < 300 nM; activity at 10 µM ([3]; Homo sapiens, Myoblast, Donor 3, compounds 10 μM, monoplicate (IGF-1 control 100 ng/ml), Myotube fusion index (compound)*100/basal control, read-out: Primary screening (% Activity)): 176%; activity at 10 µM ([3]; Homo sapiens, Myoblast, Donor 3, compounds 10 μM, six well replicates (IGF-1 control 100 ng/ml), Myotube fusion index (compound)*100/basal control, read-out: Retest (% Activity)): 136%; EC50 ([3]; Homo sapiens, Myoblast, Donor 3, first dose response assay): < 30 nM; increase in the fusion index or/and myotube area readouts ([3]; primary screening and retest, Donor 3, 10 μM): > 30% |
